pIC50: −log10 of the molar value. Like-named read-outs stand apart in the source and are kept apart here. Marks after values point to notes of the source that are not given here.
How the values were obtained:
[1] = tested on: central muscarinic cholinergic receptor; type: binding, rat
[2] = tested on: sound-induced seizures; assay: Sound-induced seizures in Frings mice (reflex epilepsy); type: in vivo; details: for ED50: Mus musculus, ip, Frings mice
[3] = tested on: T1, L-type calcium channel; assay: Inhibition of KCl depolarization-induced increases in intracellular calcium in cultured rat cerebellar granule cells; type: cell-based; details: cultured rat cerebellar granule cells; read-out: L-type calcium channel: estimated IC50, KCl depolarization-induced increases in intracellular calcium
T1 construct: L-type calcium channel: estimated IC50, KCl depolarization-induced increases in intracellular calcium; other: cultured
From the text: The ability of arylalkylamines to inhibit dihydropyridine-sensitive Ca^2+ channels was examined in cerebellar granule cells and a rat aortic smooth muscle cell line, A7r5 cells.

[4] = target: T2, norepinephrine uptake site (Rattus norvegicus, UniProt Q63380); assay: Norepinephrine uptake binding assay: [3H]desipramine binding to rat cortical membranes
T2 construct: from tissue; host or cells: rat cortical membranes (per the assay title)

[5] = in vivo; details: mouse, in vivo, ip
Method: (§1) In this assay, Frings and CF1 mice were injected with test compound and placed on a knurled rod which rotated at a speed of 6 rpm. The ability of the mice to maintain equilibrium for long periods of time was determined; those mice that were unable to maintain equilibrium on the rotorod for 1 min in each of 3 trials were considered impaired.

[6] = tested on: mean arterial blood pressure; details: for no significant cardiovascular activity in anesthetized rats at doses up to: i.v.
[7] = tested on: NMDA receptor; assay: Inhibition of NMDA/glycine-induced increases in intracellular calcium in cultured rat cerebellar granule cells (RCGC); type: cell-based; details: NMDA/glycine-induced increases in intracellular calcium, cultured rat cerebellar granule cells; read-out: IC50 (μM) vs. NMDA
[8] = target: NMDA receptor-ionophore complex (site labeled by [3H]MK-801); assay: Inhibition of [3H]MK-801 binding in rat cortical/hippocampal washed membrane preparations; details: for IC50: read-out: IC50 (μM) vs. [3H]MK-801, rat cortical/hippocampal washed membranes
[9] = target: T3, serotonin uptake site (Rattus norvegicus, UniProt P31652); assay: Serotonin uptake binding assay: [3H]citalopram binding to rat forebrain membranes
T3 construct: from tissue; host or cells: rat forebrain membranes (per the assay title)

[10] = tested on: focal ischemic stroke; assay: Rat model of focal ischemic stroke (vessel occlusion); type: in vivo, rats; details: i.p. 2 mg/kg 30 min prior to vessel occlusion and 2 mg/kg 3 hr post-occlusion
[11] = target: T4, dopamine uptake site (Cavia porcellus, UniProt H0WCX4); assay: Dopamine uptake binding assay: [3H]WIN-35,428 binding to guinea pig striatal membranes
T4 construct: from tissue; host or cells: guinea pig striatal membranes (per the assay title)

[12] = tested on: seizure threshold; assay: i.v. Metrazol test (seizure threshold) in mice; type: in vivo
[13] = tested on: maximal electroshock-induced seizures; assay: Maximal electroshock-induced seizures in mice; type: in vivo; details: Mus musculus, ip; mice
[14] = tested on: motor performance; assay: Acute motor impairment (rotorod) in mice; details: Frings mice, i.c.v. injection
Method: as §1

[15] = tested on: induction of LTP; parameters: species or system rat; details: at 300 μM
[16] = tested on: NMDA receptor; details: rat hippocampal slices
Method: Glutamate-mediated transmission at synapses of Schaffer collateral fibers and CA1 pyramidal cells was measured in slices of rat brain containing the hippocampus. This assay measures electrophysiologically the postsynaptic depolarization caused by the presynaptic release of glutamate, and can readily distinguish synaptic transmission mediated by NMDA or AMPA receptors.

T3 sequence (P31652 whole entry): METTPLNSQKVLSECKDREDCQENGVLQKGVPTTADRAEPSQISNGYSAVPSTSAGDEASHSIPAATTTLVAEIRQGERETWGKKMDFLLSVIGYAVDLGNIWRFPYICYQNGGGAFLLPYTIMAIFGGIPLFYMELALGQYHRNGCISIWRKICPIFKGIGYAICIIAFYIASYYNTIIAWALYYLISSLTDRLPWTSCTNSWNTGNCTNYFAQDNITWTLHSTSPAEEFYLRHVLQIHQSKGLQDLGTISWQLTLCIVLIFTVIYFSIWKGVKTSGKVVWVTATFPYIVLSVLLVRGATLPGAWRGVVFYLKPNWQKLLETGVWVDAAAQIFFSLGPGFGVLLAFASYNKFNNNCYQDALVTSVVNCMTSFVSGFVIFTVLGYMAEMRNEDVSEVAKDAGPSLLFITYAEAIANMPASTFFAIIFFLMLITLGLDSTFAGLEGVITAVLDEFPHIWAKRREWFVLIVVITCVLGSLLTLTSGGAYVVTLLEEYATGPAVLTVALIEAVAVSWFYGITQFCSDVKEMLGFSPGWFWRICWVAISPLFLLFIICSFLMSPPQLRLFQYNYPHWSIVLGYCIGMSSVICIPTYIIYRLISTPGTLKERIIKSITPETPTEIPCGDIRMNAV
T2 sequence (Q63380 1-617): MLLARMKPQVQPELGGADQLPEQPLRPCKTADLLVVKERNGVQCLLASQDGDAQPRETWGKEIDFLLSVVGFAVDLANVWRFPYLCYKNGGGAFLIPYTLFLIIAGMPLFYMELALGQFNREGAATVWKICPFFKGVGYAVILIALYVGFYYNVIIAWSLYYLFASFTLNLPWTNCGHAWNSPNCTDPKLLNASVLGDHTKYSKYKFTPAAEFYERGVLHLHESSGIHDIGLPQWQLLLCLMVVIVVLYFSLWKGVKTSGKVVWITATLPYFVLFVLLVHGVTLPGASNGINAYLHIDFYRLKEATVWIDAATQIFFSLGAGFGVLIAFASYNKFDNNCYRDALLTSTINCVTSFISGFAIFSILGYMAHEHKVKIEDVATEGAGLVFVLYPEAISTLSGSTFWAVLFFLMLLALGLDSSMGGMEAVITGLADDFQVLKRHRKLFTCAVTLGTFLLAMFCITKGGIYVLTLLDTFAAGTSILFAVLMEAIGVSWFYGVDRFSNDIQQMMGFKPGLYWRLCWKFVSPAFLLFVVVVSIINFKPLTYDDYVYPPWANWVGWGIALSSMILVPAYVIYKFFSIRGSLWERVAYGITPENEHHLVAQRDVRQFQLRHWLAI
T4 sequence (H0WCX4 1-619): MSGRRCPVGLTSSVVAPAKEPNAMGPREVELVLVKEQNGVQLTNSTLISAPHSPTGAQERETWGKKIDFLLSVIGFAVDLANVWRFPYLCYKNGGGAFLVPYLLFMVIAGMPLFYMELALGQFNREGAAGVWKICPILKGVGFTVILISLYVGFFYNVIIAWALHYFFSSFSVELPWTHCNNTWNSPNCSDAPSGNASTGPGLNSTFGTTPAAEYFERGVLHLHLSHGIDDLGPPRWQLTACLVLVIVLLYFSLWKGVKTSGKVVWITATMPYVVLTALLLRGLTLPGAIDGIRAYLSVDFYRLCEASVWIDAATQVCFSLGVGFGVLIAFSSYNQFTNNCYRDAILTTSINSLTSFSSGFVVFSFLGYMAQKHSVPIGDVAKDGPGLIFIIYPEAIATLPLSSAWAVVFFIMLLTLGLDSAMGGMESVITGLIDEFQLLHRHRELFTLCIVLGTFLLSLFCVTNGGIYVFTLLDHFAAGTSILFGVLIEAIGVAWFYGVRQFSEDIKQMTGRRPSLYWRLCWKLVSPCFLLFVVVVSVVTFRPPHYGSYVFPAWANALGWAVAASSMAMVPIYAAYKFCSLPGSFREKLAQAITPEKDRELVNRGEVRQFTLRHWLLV

SMILES | Central muscarinic cholinergic receptor: percent block of [3H]QNB binding ([1]; at 0.1 μM) | Central muscarinic cholinergic receptor: percent block of [3H]QNB binding ([1]; at 10 μM) [% at] | ED50 [2] [mg/kg] | pIC50 [3] | Monoamine uptake binding assays: norepinephrine uptake binding assay, percent block ([4]; at 0.1 μM) | Monoamine uptake binding assays: norepinephrine uptake binding assay, percent block ([4]; at 10 μM) | TD50 ([5]; Frings) [mg/kg] | no significant cardiovascular activity in anesthetized rats at doses up to [6] | IC50 [7] [µM] | IC50 [8] [µM] | Monoamine uptake binding assays: serotonin uptake binding assay, percent block ([9]; at 0.1 μM) | Monoamine uptake binding assays: serotonin uptake binding assay, percent block ([9]; at 10 μM) | neuroprotectant activity in a rat model of focal ischemic stroke [10] | Monoamine uptake binding assays: dopamine uptake binding assay, percent block ([11]; at 0.1 μM) [% at] | Monoamine uptake binding assays: dopamine uptake binding assay, percent block ([11]; at 10 μM) | other results
Cc1ccc(F)cc1C(CCN)c1cc(F)ccc1C [Compound 58, 3,3-bis(3-fluoro-6-methylphenyl)-1-propylamine] | 1% at | 0.148 | 0.9 | 5.59 | 10^f1% at | 0.1^g67% at | 14.5 | up to 2 mg/kg | 0.028 | 0.203 | 10^g27% at | 0.1^h95% at | no significant neuroprotectant activity | 0 | 0.1^f45% at | –
NC(=O)CC(c1cccc(F)c1)c1cccc(F)c1 [Compound 151, 3,3-Bis(3-fluorophenyl)propanamide] | – | – | – | – | – | – | – | – | 54.9 | > 100 | – | – | – | – | – | seizure threshold, i.v. Metrazol test ([12]; 36.5 and 108 mg/kg i.p.): a significant increase in seizure threshold; TD50 [5]: 108 mg/kg; ED50 [13]: 36.5 mg/kg
NCCCNCCCNCCCNC(=O)Cc1c[nH]c2ccc(F)cc12 [Compound 9] | – | – | – | – | – | – | – | – | 1.2 | > 100 | – | – | – | – | – | IC50, prevention of sound-induced seizures ([2]; intracerebroventricular (i.c.v.) injection): 4.77 µg; TD50, acute motor impairment [14]: 14.8 µg; LTP Assay (block of the induction of LTP) [15]: no block; Drop in Mean Arterial Blood Pressure ([6]; 4.5 μmoles/kg i.v., rats): 75 mm Hg at; Drop in Mean Arterial Blood Pressure: duration ([6]; 4.5 μmoles/kg i.v., rats): i.v., 90 min; duration of the hypotensive effect ([6]; systemic administration in rats): approximately 30 min; % inhibition of [3H]MK-801 binding at the stated concentration (IC50 study incomplete) ([8]; at 100 μM): (10% at 100 μM)^d; Suppression of NMDA Receptor-Mediated Synaptic Transmission (concentration which suppresses) [16]: 10 to 100 µM
CC(CN)C(c1cccc(Cl)c1)c1cccc(Cl)c1 (centres unmarked) [Compound 46] | 33% at. | 0.189 | 25 | 6.17 | 10^f7% at | 0.1^g64% at | 18 to 21 | – | 0.013 | 5.2 | 10^g10% at | 0.1^h75% at | no significant neuroprotectant activity | 40 | 0.1^f97% at | –
CCNCCC(c1cccc(F)c1)c1cccc(F)c1 [Compound 59, N-ethyl-3,3-bis(3-fluorophenyl)-1-propylamine] | 9% at | 0.187 | 2.7 | – | 10^f7% at | 0.1^g51% at | 7.8 | up to 10 mg/kg | 0.272 | 0.453 | 10^g14% at | 0.1^h86% at | no significant neuroprotectant activity | 2 | 0.1^f78% at | seizure threshold, i.v. Metrazol test ([12]; 11.7 mg/kg i.p.): a reduction in seizure threshold

— US6750244B2, “Compounds active at a novel site on receptor-operated calcium channels useful for treatment of neurological disorders and diseases” (NPS Pharmaceuticals, Inc., priority 1993, dated 2004)
